Our source for the Ki, IC50 and melting point values is patent US7767685B2, “Adenosine A2B receptor antagonists” (King Pharmaceuticals Research and Development, Inc., priority 2006, dated 2010).

Some results are limits rather than exact numbers.

The target in data set [1] is T1, human A2B adenosine receptors (Homo sapiens, UniProt P29275).
T1 construct: expressed in transfected cells; host or cells: CHO cells (whole cells)
T1 sequence (P29275 1-332): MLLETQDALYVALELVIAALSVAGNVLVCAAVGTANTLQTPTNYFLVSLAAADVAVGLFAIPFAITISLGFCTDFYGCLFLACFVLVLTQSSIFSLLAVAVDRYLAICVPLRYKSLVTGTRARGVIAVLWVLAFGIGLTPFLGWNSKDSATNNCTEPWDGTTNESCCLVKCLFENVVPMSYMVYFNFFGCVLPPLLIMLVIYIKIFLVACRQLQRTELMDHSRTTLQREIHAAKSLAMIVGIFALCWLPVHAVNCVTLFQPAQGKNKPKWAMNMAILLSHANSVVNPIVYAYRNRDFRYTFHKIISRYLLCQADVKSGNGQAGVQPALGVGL
The data set can be described thus: Displacement of [3H]MRE2029F20 binding at human A2B adenosine receptors. As to conditions: [3H]MRE2029F20 displacement, human A2B receptors (footnote: HEK293 cells; method: CHO cells), n = 3-6; geometric mean (95% confidence limits); read-out: Ki hA2B. The method, then: […] (Naunyn-Schmied. Arch Pharm. 1998, 357: 1-9). Briefly, the cells are grown adherently and maintained in Dulbecco's Modified Eagles Medium with nutrient mixture F12 (DMEM/F12) without nucleosides, containing 10% fetal calf serum, penicillin (100 U/mL), streptomycin (100 μg/mL), L-glutamine (2 mM) and Geneticin (G418, 0.2 mg/ml) at 37° C. in 5% CO2/95% air. For membrane preparation the culture medium is removed and the cells are washed with phosphate-buffered saline and scraped off T75 flasks in ice-cold hypo tonic buffer (5 mM Tris HCl, 1 mM EDTA, pH 7.4). The cell suspension is homogenized with Polytron, the homogenate is spun for 10 min at 1000×g and the supernatant is then centrifuged for 30 min at 100,000×g. The membrane pellet is suspended in 50 mM Tris HCl buffer (pH 7.4) for A1 adenosine receptors, in 50 mM Tris HCl, 10 mM MgCl2 (pH 7.4) for A2A adenosine receptors, in 50 mM Tris HCl, 10 mM MgCl2, 1 mM EDTA (pH 7.4) for A2B and A3 adenosine receptors.
All new synthesized compounds have been tested to evaluate their affinity to human A1, A2A, A2B and A3 adenosine receptors. […] Pharmacol., 2000, 57: 968-975). Non-specific binding is determined in the presence of 10 μM of CHA and this is always ≦10% of the total binding. […] recombinant A2A adenosine receptors is performed using a suspension of membranes (50 μg of protein/assay) and at least 6-8 different concentrations of studied antagonists for an incubation time of 60 min at 4° C. Non-specific binding is determined in the presence of 1 μM ZM 241385 and is about 20% of total binding. […] Non-specific binding is defined as binding in the presence of 1 μM MRE 3029F20 and is about 25% of total binding. […] Non-specific binding is defined as binding in the presence of 1 μM MRE 3008F20 and is about 25% of total binding. Bound and free radioactivity are separated by filtering the assay mixture through Whatman GF/B glass fiber filters using a Micro-Mate 196 cell harvester (Packard Instrument Co.). The filter bound radioactivity is counted on a Top Count (efficiency 57%) with Micro-Scint 20.
(§1) The protein concentration is determined according to a Bio-Rad method (Bradford, Anal Biochem. 1976, 72: 248-254) with bovine albumin as a standard reference. Inhibitory binding constant, Ki, values are calculated from those of IC50 according to Cheng & Prusoff equation (Biochem. Pharmacol 1973, 22: 3099-3108): Ki=IC50/(1+[C*]/KD*) where [C*] is the concentration of the radioligand and KD* its dissociation constant. A weighted non linear least-squares curve fitting program LIGAND (Munson et al., Anal. Biochem 1980, 107: 220-239) is used for computer analysis of inhibition experiments Data are expressed as geometric mean with 95% confidence limits in parentheses. Examples of Animal Models

Data set [2] concerns the target T1, human A2B adenosine receptors. The data set can be described thus: cAMP assay in CHO cells expressing human A2B adenosine receptors (antagonism of NECA-induced cAMP). Type of data set: cell-based. Particulars: antagonism of NECA (100 nM)-induced cAMP, geometric mean (95% confidence limits), read-out: IC50 hA2B (cAMP assay). The method, then:
Measurement of Cyclic AMP Levels in CHO Cells Transfected with Human A2B Adenosine Receptors
CHO cells transfected with human A2B adenosine receptors are washed with phosphate-buffered saline, diluted trypsine and centrifuged for 10 min at 200 g. The pellet containing the CHO cells (1×10^6 cells/assay) is suspended in 0.5 mL of incubation mixture: NaCl 150 mM, KCl 2.7 mM, NaH2PO4 0.37 mM, MgSO4 1 mM, CaCl2 1 mM, Hepes 5 mM, MgCl2 10 mM, glucose 5 mM, pH 7.4 at 37° C. Then 2.0 IU/mL adenosine deaminase and 0.5 mM 4-(3-butoxy-4-methoxybenzyl)-2-imidazolidinone (Ro 20-1724) as phosphodiesterase inhibitor are added and preincubated for 10 min a shaking bath at 37° C. The potency of antagonists studied are determined by antagonism of NECA (100 nM)-induced stimulation of cyclic AMP levels. The reaction is terminated by the addition of cold 6% thrichloroacetic acid (TCA). The TCA suspension is centrifuged at 2000 g for 10 min at 4° C. and the supernatant is extracted four times with water saturated diethyl ether. The final aqueous solution is tested for cyclic AMP levels by a competition protein binding assay. Samples of cyclic AMP standard ([…]) are added to each test tube containing the incubation buffer (trizma base 0.1 M, aminophylline 8.0 mM, 2-mercaptoethanol 6.0 mM (pH 7.4) and [^3H]cyclic AMP in a total volume of 0.5 mL. The binding protein previously prepared from beef adrenals, is added to the samples previously incubated at 4° C. for 150 min, and after the addition of charcoal are centrifuged at 2000 g for 10 min. The clear supernatant is counted with 4 mL of Atomlight liquid scintillator and counted in a Tri Carb Packard 2500 TR scintillation counter.
as §1
In general terms: Changes in cAMP serve as a functional read-out for many G protein-coupled receptors.

Data set [3] has as its target T2, human A1 adenosine receptors (Homo sapiens, UniProt P30542).
T2 construct: expressed in transfected cells; host or cells: CHO cells (membranes)
T2 sequence (P30542 1-326): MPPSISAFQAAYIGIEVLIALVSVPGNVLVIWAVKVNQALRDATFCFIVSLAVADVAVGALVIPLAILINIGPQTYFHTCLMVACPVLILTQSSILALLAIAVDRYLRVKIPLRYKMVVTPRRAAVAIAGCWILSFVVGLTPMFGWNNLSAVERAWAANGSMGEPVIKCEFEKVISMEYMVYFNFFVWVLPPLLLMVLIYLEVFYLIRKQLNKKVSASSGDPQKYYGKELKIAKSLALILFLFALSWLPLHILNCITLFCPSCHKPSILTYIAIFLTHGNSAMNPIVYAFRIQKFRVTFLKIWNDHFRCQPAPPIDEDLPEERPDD
The data set is described as follows: Displacement of [3H]DPCPX binding at human A1 adenosine receptors expressed in CHO cells. Particulars: [3H]DPCPX displacement, n = 3-6, geometric mean (95% confidence limits), read-out: Ki hA1. How it is done:
(§2) The human adenosine receptors have been transfected in CHO cells according with the method previously described by Klotz et al. (Naunyn-Schmied. Arch Pharm. 1998, 357: 1-9). Briefly, the cells are grown adherently and maintained in Dulbecco's Modified Eagles Medium with nutrient mixture F12 (DMEM/F12) without nucleosides, containing 10% fetal calf serum, penicillin (100 U/mL), streptomycin (100 μg/mL), L-glutamine (2 mM) and Geneticin (G418, 0.2 mg/ml) at 37° C. in 5% CO2/95% air. For membrane preparation the culture medium is removed and the cells are washed with phosphate-buffered saline and scraped off T75 flasks in ice-cold hypo tonic buffer (5 mM Tris HCl, 1 mM EDTA, pH 7.4). The cell suspension is homogenized with Polytron, the homogenate is spun for 10 min at 1000×g and the supernatant is then centrifuged for 30 min at 100,000×g. The membrane pellet is suspended in 50 mM Tris HCl buffer (pH 7.4) for A1 adenosine receptors, in 50 mM Tris HCl, 10 mM MgCl2 (pH 7.4) for A2A adenosine receptors, in 50 mM Tris HCl, 10 mM MgCl2, 1 mM EDTA (pH 7.4) for A2B and A3 adenosine receptors.
(§3) All new synthesized compounds have been tested to evaluate their affinity to human A1, A2A, A2B and A3 adenosine receptors. Displacement experiments of [^3H]-DPCPX to CHO cells transfected with the human recombinant A1 adenosine receptors are performed for 120 min at 25° C. incubating diluted membranes (50 μg of protein/assay) and at least 6-8 different concentrations of examined antagonists (Varani et al., Mol. Pharmacol., 2000, 57: 968-975). Non-specific binding is determined in the presence of 10 μM of CHA and this is always ≦10% of the total binding. Binding of [^3H]-ZM 241385 to CHO cells transfected with the human recombinant A2A adenosine receptors is performed using a suspension of membranes (50 μg of protein/assay) and at least 6-8 different concentrations of studied antagonists for an incubation time of 60 min at 4° C. Non-specific binding is determined in the presence of 1 μM ZM 241385 and is about 20% of total binding. Competition binding experiments of [^3H]-MRE 2029F20 to CHO cells transfected with the human recombinant A2B adenosine receptors are carried out incubating for 120 min at 4° C. diluted membranes (50 μg of protein/assay) and at least 6-8 different concentrations of examined compounds. Non-specific binding is defined as binding in the presence of 1 μM MRE 3029F20 and is about 25% of total binding. Competition binding experiments of [^3H]-MRE 3008F20 to CHO cells transfected with the human recombinant A3 adenosine receptors^5 are carried out incubating for 120 min at 4° C. diluted membranes (50 μg of protein/assay) and at least 6-8 different concentrations of examined ligands. Non-specific binding is defined as binding in the presence of 1 μM MRE 3008F20 and is about 25% of total binding. Bound and free radioactivity are separated by filtering the assay mixture through Whatman GF/B glass fiber filters using a Micro-Mate 196 cell harvester (Packard Instrument Co.). The filter bound radioactivity is counted on a Top Count (efficiency 57%) with Micro-Scint 20.
as §1
In general terms: In a radioligand displacement assay an active substance lowers the binding of a labelled ligand.

Data set [4] has as its target T3, human A2A adenosine receptors (Homo sapiens, UniProt P29274).
T3 construct: expressed in transfected cells; host or cells: CHO cells (membranes)
The data set is described as follows: Displacement of [3H]ZM241385 binding at human A2A adenosine receptors expressed in CHO cells. As to conditions: [3H]ZM241385 displacement, n = 3-6, geometric mean (95% confidence limits), read-out: Ki hA2A. How it is done:
as §2, §3, §1

T3 sequence (P29274 whole entry): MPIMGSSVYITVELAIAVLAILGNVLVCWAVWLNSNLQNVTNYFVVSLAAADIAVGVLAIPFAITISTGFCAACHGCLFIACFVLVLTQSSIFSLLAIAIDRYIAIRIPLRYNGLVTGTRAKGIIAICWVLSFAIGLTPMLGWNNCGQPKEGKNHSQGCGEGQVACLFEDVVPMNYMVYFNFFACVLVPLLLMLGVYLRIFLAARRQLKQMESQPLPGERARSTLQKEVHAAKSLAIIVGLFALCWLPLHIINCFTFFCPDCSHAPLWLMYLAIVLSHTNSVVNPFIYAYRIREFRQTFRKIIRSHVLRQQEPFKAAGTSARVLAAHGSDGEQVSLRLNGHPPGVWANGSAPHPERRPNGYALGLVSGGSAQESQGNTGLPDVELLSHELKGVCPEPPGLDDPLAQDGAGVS

Consider `CCCn1c(=O)c2[nH]c(-c3cc(C)n(CC(=O)Nc4ccc(Br)cc4)n3)nc2n(CCC)c1=O` [Example 3, 2-[3-(2,6-Dioxo-1,3-dipropyl-2,3,6,7-tetrahydro-1H-purin-8-yl)-5-methyl-pyrazol-1-yl]-N-(4-bromophenyl)acetamide], for which the melting point lay within 270 to 273 °C. Besides, the Ki in data set [1] was 35 nM. The IC50 in data set [2] came to 156 nM.

Consider `CCCn1c(=O)c2[nH]c(-c3cc(C)n(CC(=O)Nc4ccc(Cl)cc4)n3)nc2n(CCC)c1=O` [Example 4, 2-[3-(2,6-Dioxo-1,3-dipropyl-2,3,6,7-tetrahydro-1H-purin-8-yl)-5-methyl-pyrazol-1-yl]-N-(4-chlorophenyl)-acetamide], for which the melting point is 261 to 265 °C. The Ki in data set [1] came to 7 nM. Moreover, in data set [2], the IC50 was found to be 43 nM.

`CCCn1c(=O)c2[nH]c(-c3cc(CC)n(CC(=O)Nc4ccc(Cl)cc4)n3)nc2n(CCC)c1=O` [Example 9] gave a melting point of 256 to 257 °C. Also, in data set [3], the Ki is greater than 1000 nM. In data set [4], the Ki is greater than 1000 nM. In addition, the half-inhibitory concentration (IC50) in data set [2] is greater than 1000 nM.

The compound `CCCn1c(=O)c2[nH]c(-c3cc(C)n(CC(=O)Nc4ccc(N(C)C)cc4)n3)nc2n(CCC)c1=O` [Example 11, 2-[3-(2,6-Dioxo-1,3-dipropyl-2,3,6,7-tetrahydro-1H-purin-8-yl)-5-methyl-pyrazol-1-yl]-N-(4-dimethylaminophenyl)-acetamide] gave a melting point greater than 300 °C. The Ki in data set [3] was greater than 1000 nM. The Ki in data set [4] is greater than 1000 nM. Further, in data set [2], the IC50 is greater than 1000 nM.

Consider `CCCn1c(=O)c2[nH]c(-c3cc(C)n(CC(=O)Nc4cccc5ccccc45)n3)nc2n(CCC)c1=O` [Example 13, 2-[3-(2,6-Dioxo-1,3-dipropyl-2,3,6,7-tetrahydro-1H-purin-8-yl)-5-methyl-pyrazol-1-yl]-N-(naphthalen-1-yl)-acetamide], for which the melting point is greater than 300 °C. Further, the Ki in data set [3] is greater than 1000 nM. Moreover, in data set [4], the inhibition constant (Ki) is greater than 1000 nM. Further, the IC50 in data set [2] is greater than 1000 nM.

`CCCn1c(=O)c2[nH]c(-c3nn(CC(=O)Nc4ccc(Cl)cc4)c(C)c3I)nc2n(CCC)c1=O` [Example 20, 2-[4-Iodo-3-(2,6-dioxo-1,3-dipropyl-2,3,6,7-tetrahydro-1H-purin-8-yl)-5-methyl-pyrazol-1-yl]-N-(4-chlorophenyl)-acetamide]: the melting point lay within 296 to 297 °C. Moreover, in data set [3], the Ki is greater than 1000 nM. Besides, the Ki in data set [4] was greater than 1000 nM. For the same compound, the half-inhibitory concentration (IC50) in data set [2] was greater than 1000 nM.

Usually Ki stands for a measure of affinity in units of concentration, obtained from inhibition or displacement. The term IC50 denotes the concentration at which inhibition is half-maximal. Usually melting point stands for the temperature of the solid-liquid transition.
